Test results published in ChEMBL document CHEMBL5500418, “Structure-Activity Study on Substituted, Core-Extended, and Dyad Naphthalene Diimide G-Quadruplex Ligands Leading to Potent Antitrypanosomal Agents” (J Med Chem, 2024).

Key:
Quadruplex DNA [1] = test: Stabilization of Trypanosoma brucei ERB1 G4 DNA assessed as change in melting temperature at 1 uM by FRET assay; format: nucleic-acid assay
Trypanosoma brucei [2] = test: Antitrypanosomal activity against bloodstream-stage Trypanosoma brucei measured after 72 hrs by alamar blue assay; format: functional, organism-based
[3] = Selectivity index, ratio of IC50 for human MRC5 to IC50 for Leishmania major measured after 72 hrs by MTT assay; format: toxicity; conditions: MRC5 cells, read-out: Ratio IC50
[4] = Selectivity index, ratio of IC50 for human MRC5 to IC50 for Trypanosoma brucei measured after 72 hrs by alamar blue assay; format: toxicity; conditions: MRC5 cells, read-out: Ratio IC50
[5] = Cytotoxicity against human MRC5 cells incubated for 72 hrs by alamar blue staining based assay; format: toxicity, cell-based
Leishmania major = test: Antileishmanial activity against Leishmania major promastigotes MHOM/IL/80/Friedlin measured after 72 hrs by MTT assay; format: functional, organism-based
Quadruplex DNA [6] = test: Stabilization of 22AG G4 DNA (unknown origin) assessed as change in melting temperature at 1 uM by FRET assay; format: nucleic-acid assay
Quadruplex DNA [7] = test: Stabilization of 22AG G4 DNA (unknown origin) assessed as change in melting temperature at 265 nm wavelength at 5 uM by CD spectroscopy; format: nucleic-acid assay
[8] = Drug uptake in human MRC5 cells at 4 to 37 degreeC at 5 uM after 30 to 120 mins by flow cytometry analysis; format: ADME, cell-based; conditions: mrc5, 5 µM, time 30-120 min
[9] = Drug localization in Trypanosoma brucei nucleus at 37 degreeC at 5 uM after 30 mins by DAPI staining based fluorescence microscopy analysis; format: ADME, subcellular; conditions: 0.5 h
[10] = Drug localization in human MRC5 cells nucleus at 37 degreeC at 5 uM after 30 mins by DAPI staining based fluorescence microscopy analysis; format: ADME, subcellular; conditions: mrc5, 0.5 h
Quadruplex DNA [11] = test: Stabilization of Trypanosoma brucei ERB1 G4 DNA assessed as change in melting temperature at 265 nm wavelength at 5 uM by CD spectroscopy; format: nucleic-acid assay
[12] = Drug uptake in Trypanosoma brucei at 4 to 37 degreeC at 5 uM after 30 to 120 mins by flow cytometry analysis; format: ADME; conditions: time 30-120 min
[13] = Drug localization in Trypanosoma brucei kinetoplast at 37 degreeC at 5 uM after 30 mins by DAPI staining based fluorescence microscopy analysis; format: ADME, subcellular; conditions: 0.5 h
[14] = Drug localization in human MRC5 cells cytoplasm at 37 degreeC at 5 uM after 30 mins by DAPI staining based fluorescence microscopy analysis; format: ADME, subcellular; conditions: mrc5, 0.5 h
Quadruplex DNA [15] = test: Stabilization of 22AG G4 DNA (unknown origin) assessed as change in melting temperature at 292 nm wavelength at 5 uM by CD spectroscopy; format: nucleic-acid assay
Trypanosoma brucei [16] = test: Trypanocidal activity against bloodstream-stage Trypanosoma brucei measured after 72 hrs by CellTiter-Glo luminescent assay; format: functional, organism-based
Quadruplex DNA [17] = test: Stabilization of Trypanosoma brucei ERB1 G4 DNA assessed as change in melting temperature at 292 nm wavelength at 5 uM by CD spectroscopy; format: nucleic-acid assay
[18] = Drug localization in Trypanosoma brucei at 5 uM after 120 mins by DAPI staining based fluorescence microscopy analysis; format: ADME; conditions: 2 h
[19] = Selectivity index, ratio of IC50 for human MRC5 to IC50 for Trypanosoma brucei measured after 72 hrs by CellTiter-Glo luminescent assay; format: toxicity; conditions: MRC5 cells, read-out: Ratio IC50
Trypanosoma brucei [20] = test: Antitrypanosomal activity against Trypanosoma brucei; format: functional, organism-based

ΔTm (Quadruplex DNA [1]) [°C] | IC50 (Trypanosoma brucei [2]) [nM] | ΔTm (Quadruplex DNA [6]) [°C] | Compound | selectivity ratio at 72 h [3] | selectivity ratio at 72 h [4] | IC50 at 72 h [5] [nM] | IC50 (Leishmania major) [nM] | further results
9.7 | 61 | 4.4 | COCCOCCNc1cc2c3c(ccc4c3c1C(=O)N(CCCN(C)C)C4=O)C(=O)N(CCCN(C)C)C2=O | 1.1 | 80.6 | 5000 | 4420 | 
> 30 | 54 | > 30 | CN(C)CCCNc1cc2c3c(c(NCCCN(C)C)cc4c3c1C(=O)N(CCCN(C)C)C4=O)C(=O)N(CCCN(C)C)C2=O | 0.18 | 38.9 | 2100 | 11800 | 
15 | 15 | > 30 | CN(C)CCCN1C(=O)c2ccc3c4c(c(NCCCCCCCNc5cc6c7c(ccc8c7c5C(=O)N(CCCN(C)C)C8=O)C(=O)N(CCCN(C)C)C6=O)cc(c24)C1=O)C(=O)N(CCCN(C)C)C3=O | 0.002 | 4 | 62 | 2590 | 
> 30 | 0.09 | > 30 | CCCNC(=O)c1ccc2[nH]c3c([nH]c2c1)c1c(=O)n(CCCN(C)C)c(=O)c2ccc4c(=O)n(CCCN(C)C)c(=O)c3c4c21 | 0.12 | 422 | 38 | 310 | ΔTm (Quadruplex DNA [7]): > 30 °C; Drug uptake [8]: Active; Drug uptake [9]: Active; Drug uptake [10]: Active; ΔTm (Quadruplex DNA [11]): 22.7 °C; Drug uptake [12]: 20%; Drug uptake [13]: Not Active; Drug uptake [14]: Not Active; ΔTm (Quadruplex DNA [15]): 14.8 °C; IC50 (Trypanosoma brucei [16]): 0.011 nM; ΔTm (Quadruplex DNA [17]): 26 °C; Drug uptake [18]: Active; selectivity ratio at 72 h [19]: 3450
> 30 | 0.26 | 8.5 | CN(C)CCCn1c(=O)c2ccc3c(=O)n(CCCN(C)C)c(=O)c4c5[nH]c6ccccc6[nH]c5c(c1=O)c2c34 | 11.5 | 88 | 23 | 2 | ΔTm (Quadruplex DNA [7]): 6.7 °C; Drug uptake [8]: Active; ΔTm (Quadruplex DNA [11]): 25.9 °C; Drug uptake [12]: 20%; ΔTm (Quadruplex DNA [15]): 3 °C; IC50 (Trypanosoma brucei [16]): 0.07 nM; ΔTm (Quadruplex DNA [17]): 23 °C; selectivity ratio at 72 h [19]: 328
> 30 | 8500 | 18.3 | CN(C)CCCNc1cc2c3c(c(NCCCCCCCNc4cc5c6c(ccc7c6c4C(=O)N(CCCN(C)C)C7=O)C(=O)N(CCCN(C)C)C5=O)cc4c3c1C(=O)N(CCCN(C)C)C4=O)C(=O)N(CCCN(C)C)C2=O | < 0.66 | 7.8 | 66300 | > 100000 | 
 |  |  | N=C(N)c1ccc(OCCCCCOc2ccc(C(=N)N)cc2)cc1 [PENTAMIDINE] |  |  |  |  | IC50 (Trypanosoma brucei [20]): 0.2 nM
3.6 | 21 | 1.9 | CN(C)CCCNc1cc2c3c(c(N(C)C)cc4c3c1C(=O)N(CCCN(C)C)C4=O)C(=O)N(CCCN(C)C)C2=O | 2.6 | 367 | 7700 | 2960 | ΔTm (Quadruplex DNA [7]): 8.9 °C; ΔTm (Quadruplex DNA [11]): 2.4 °C; Drug uptake [12]: 0%; ΔTm (Quadruplex DNA [15]): -1.4 °C; ΔTm (Quadruplex DNA [17]): 2.7 °C
2.1 | 290 | -2.2 | O=c1c2ccc3c(=O)n(CCOCCO)c(=O)c4c5[nH]c6ccccc6[nH]c5c(c(=O)n1CCOCCO)c2c34 | < 0.018 | 6.2 | 1800 | > 100000 | IC50 (Trypanosoma brucei [16]): 130 nM; selectivity ratio at 72 h [19]: 13.8
7.1 | 550 | 3.8 | CN(C)CCCN1C(=O)c2cc(NCCOCCOCCNc3cc4c5c(c(Br)cc6c5c3C(=O)N(CCCCCC(=O)O)C6=O)C(=O)N(CCCCCC(=O)O)C4=O)c3c4c(cc(Br)c(c24)C1=O)C(=O)N(CCCN(C)C)C3=O | < 0.14 | 25 | 14000 | > 100000 | ΔTm (Quadruplex DNA [7]): 4.9 °C; ΔTm (Quadruplex DNA [11]): 5.2 °C; ΔTm (Quadruplex DNA [15]): -2.5 °C; ΔTm (Quadruplex DNA [17]): 3.2 °C
12 | 57 | 5 | CN(C)CCCN1C(=O)c2ccc3c4c(c(NCCCO)cc(c24)C1=O)C(=O)N(CCCN(C)C)C3=O | 2 | 87.7 | 5000 | 2490 | 
1.3 | 2500 | -2.2 | O=C1c2ccc3c4c(ccc(c24)C(=O)N1CCOCCO)C(=O)N(CCOCCO)C3=O | 3.85 | 5.8 | 14500 | 3760 | 
8.6 |  | 2.7 | CN(C)CCCN1C(=O)c2ccc3c4c(c(NCc5cn(CCO[C@@H]6O[C@H](CO)[C@@H](O)[C@H](O)[C@H]6O)nn5)cc(c24)C1=O)C(=O)N(CCCN(C)C)C3=O | 1.3 | 41.8 |  |  | 
2.9 | 9500 | -1.4 | O=C1c2ccc3c4c(c(NCCOCCO)cc(c24)C(=O)N1CCOCCO)C(=O)N(CCOCCO)C3=O | > 6.98 | > 10.5 | > 100000 | 14300 | 
3.5 | 42700 | 0.3 | O=C1c2cc(NCCOCCO)c3c4c(cc(NCCOCCO)c(c24)C(=O)N1CCOCCO)C(=O)N(CCOCCO)C3=O |  | > 2.3 | > 100000 | > 100000 | 
12 |  | > 30 | CCCNc1cc2c3c(ccc4c3c1C(=O)N(CCCN(C)C)C4=O)C(=O)N(CCCN(C)C)C2=O | 10.6 | 40 |  |  | 
19 | 21500 | 9.6 | CN(C)CCCNc1cc2c3c(ccc4c3c1C(=O)N(CCCN(C)C)C4=O)C(=O)N(CCCN(C)C)C2=O |  | > 4.6 | > 100000 | > 100000 | 
11 |  | 10 | CN(C)CCCN1C(=O)c2ccc3c4c(c(NCc5cn([C@@H]6O[C@H](CO)[C@@H](O)[C@H](O)[C@H]6O)nn5)cc(c24)C1=O)C(=O)N(CCCN(C)C)C3=O | 4.7 | 47.9 |  |  | 
7.4 | 32 | 2.3 | CN(C)CCCN1C(=O)c2ccc3c4c(c(N5CCCCC5)cc(c24)C1=O)C(=O)N(CCCN(C)C)C3=O | 15.3 | 81.3 | 2600 | 170 | 
